Measurements: patent publication US20030175979A1, “System and method for characterizing metabolites using hydrogen/deuterium exchange” (priority 2002, published 2003)
“Also recorded” adds a separate entry of the source.

Experiments:
dog liver hepatocytes = assay: Incubation of [14C]PD 0200126 with dog hepatocytes, radiochromatographic metabolite profile; assay type: in vitro ADME; conditions: [14C]PD 0200126 incubated with dog hepatocytes for 180 minutes; flow-through radioactivity detector
Protocol: In Vitro Study. A proposed metabolite M2 (PD 0200126-glucuronide) was formed following incubation of [^14C]PD 0200126 with dog liver hepatocytes for 180 minutes.
Apparatus and Conditions. An Agilent 1100 HPLC system (Agilent Technologies, Wilmington, Del.), including pumps, autoinjector, and UV detector, was used to separate the metabolites. Separation of the metabolites was achieved using a Metasil AQ guard column (Metachem Technologies, Torrance, Calif.) and a 150 mm×4.6 mm MetaChem Polaris C-18 reversed-phase HPLC column (Metachem Technologies). […]
After passing through the UV detector (280 nm), the HPLC effluent was split so that 20%-30% of the flow was introduced into the mass spectrometer via an ESI source supplied with the mass spectrometer, while 70%-80% was diverted to the radioactivity detector (β-RAM, IN/US, Tampa, Fla.). The analog output from the UV detector, along with the MS signal, were recorded in real time by the data system provided with the mass spectrometer (Xcalibur V 1.2, ThermoFinnigan). […] The β-RAM data was integrated to obtain semi-quantitative information about the metabolites and the unchanged drug. The delay in response between the radioactivity detector and the MS was 0.2 min -0.4 min with the MS response being recorded first. […]

[1] = Metabolite profile in rabbit plasma after oral administration of PD 0200126 (LC-UV/MS); assay type: in vivo; conditions: 300 mg/kg oral PD 0200126, UV 280 nm and LC-MS
Protocol: In Vivo Studies. To obtain plasma samples, blood from rabbits was collected at various time points following a 300 mg/kg oral administration of PD 0200126. Plasma was precipitated by addition of 3 volumes of acetonitrile to 1 volume of plasma and then centrifuged. The resulting supernatant was decanted off, dried, and subsequently reconstituted in the mobile phase solvent (described below) prior to injection in the HPLC. A 100-μL aliquot was injected for each experiment (run).
Apparatus and Conditions. An Agilent 1100 HPLC system (Agilent Technologies, Wilmington, Del.), including pumps, autoinjector, and UV detector, was used to separate the metabolites. Separation of the metabolites was achieved using a Metasil AQ guard column (Metachem Technologies, Torrance, Calif.) and a 150 mm×4.6 mm MetaChem Polaris C-18 reversed-phase HPLC column (Metachem Technologies). The mobile phase comprised 20-mM ammonium acetate in water adjusted to pH 4 with acetic acid (Solvent A) and acetonitrile (Solvent B), and was maintained at a constant flow rate (1 mL/min) throughout each run. Gradient elution of the metabolites was achieved using programmed stepwise changes of solvent A/B ratios of 95/5, 50/50, 25/75, 5/95, and 95/5 at 0, 40, 50, 60, and 75 min, respectively.
After passing through the UV detector (280 nm), the HPLC effluent was split so that 20%-30% of the flow was introduced into the mass spectrometer via an ESI source supplied with the mass spectrometer, while 70%-80% was diverted to the radioactivity detector (β-RAM, IN/US, Tampa, Fla.). The analog output from the UV detector, along with the MS signal, were recorded in real time by the data system provided with the mass spectrometer (Xcalibur V 1.2, ThermoFinnigan). A separate software program (Win-Flow V 1.5, IN/US, Tampa, Fla.) was used to control the β-RAM and to collect the analog output from the β-RAM. The β-RAM data was integrated to obtain semi-quantitative information about the metabolites and the unchanged drug. The delay in response between the radioactivity detector and the MS was 0.2 min -0.4 min with the MS response being recorded first.
Trace amounts of PD 0200126 and M10 were also observed at m/z 425 and 409, respectively. Metabolites M1-M6 were characterized in a separate study involving rat and mouse hepatocytes.

Compound	share of the total radioactivity associated with the component (dog liver hepatocytes)	abundance of drug/metabolite in plasma (UV component / extracted ion chromatogram) [1]	abundance of drug/metabolite in plasma (UV component / extracted ion chromatogram) ([1]; 300 mg/kg)
CC(C)[C@@H](NS(=O)(=O)c1ccc(-c2ccc(Br)cc2)cc1)C(=O)NOC1OC(C(=O)O)C(O)C(O)C1O (stereo partly drawn) [Metabolite M2, PD 0200126-glucuronide]	more than 90%		
NS(=O)(=O)c1ccc(-c2ccc(Br)cc2)cc1 [Metabolite M8, bromo-biphenylsulfonamide]		prominent UV components	
CC(C)[C@@H](NS(=O)(=O)c1ccc(-c2ccc(Br)cc2)cc1)C(=O)O [Metabolite M9, PD 0200126-carboxylic acid]	minor amounts	prominent UV components	
CC(C)[C@@H](NS(=O)(=O)c1ccc(-c2ccc(Br)cc2)cc1)C(N)=O [Metabolite M10]			Trace amounts; also recorded: minor UV component
CC(C)[C@@H](NS(=O)(=O)c1ccc(-c2ccc(Br)cc2)cc1)C(=O)NO [PD 0200126, 2-(4′-bromo-biphenyl-4-sulfonylamino)-N-hydroxy-3-methyl-butyramide]		Trace amounts	
